Test results: ChEMBL document CHEMBL1671810, “Identification of a novel scaffold for allosteric inhibition of wild type and drug resistant HIV-1 reverse transcriptase by fragment library screening” (J Med Chem, 2011)
Activity calls are given as the source filed them. No cut-off for these calls is given here.

Legend:
[1] = target: T1, Human immunodeficiency virus type 1 reverse transcriptase (Human immunodeficiency virus 1, UniProt Q72547, Y181C); experiment: Binding affinity to HIV1 BH10 isolate reverse transcriptase Y181C mutant expressed in Escherichia coli BL21(DE3); design: species or system Human immunodeficiency virus type 1 BH10
[2] = target: T2, Human immunodeficiency virus type 1 reverse transcriptase (Human immunodeficiency virus 1, UniProt Q72547, L100I); experiment: Binding affinity to HIV1 BH10 isolate reverse transcriptase L100I mutant expressed in Escherichia coli BL21(DE3); design: species or system Human immunodeficiency virus type 1 BH10
[3] = target: T3, Human immunodeficiency virus type 1 reverse transcriptase (Human immunodeficiency virus 1, UniProt Q72547, K103N); experiment: Binding affinity to HIV1 BH10 isolate reverse transcriptase K103N mutant expressed in Escherichia coli BL21(DE3); design: species or system Human immunodeficiency virus type 1 BH10
[4] = Inhibition of wild type HIV1 BH10 isolate reverse transcriptase catalytic activity expressed in Escherichia coli BL21(DE3) by UV-vis spectrophotometry; design: species or system Human immunodeficiency virus type 1 BH10
[5] = Binding affinity to wild type HIV1 BH10 isolate reverse transcriptase expressed in Escherichia coli BL21(DE3); design: species or system Human immunodeficiency virus type 1 BH10
[6] = test system: Human immunodeficiency virus type 1 BH10; experiment: Displacement of nevirapine from wild type HIV1 BH10 isolate reverse transcriptase expressed in Escherichia coli BL21(DE3) by competition assay
[7] = target: T2, Human immunodeficiency virus type 1 reverse transcriptase; experiment: Inhibition of HIV1 BH10 isolate reverse transcriptase L100I mutant catalytic activity expressed in Escherichia coli BL21(DE3) by UV-vis spectrophotometry; design: species or system Human immunodeficiency virus type 1 BH10
[8] = target: T1, Human immunodeficiency virus type 1 reverse transcriptase; experiment: Inhibition of HIV1 BH10 isolate reverse transcriptase Y181C mutant catalytic activity expressed in Escherichia coli BL21(DE3) by UV-vis spectrophotometry; design: species or system Human immunodeficiency virus type 1 BH10
[9] = target: T3, Human immunodeficiency virus type 1 reverse transcriptase; experiment: Inhibition of HIV1 BH10 isolate reverse transcriptase K103N mutant catalytic activity expressed in Escherichia coli BL21(DE3) by UV-vis spectrophotometry; design: species or system Human immunodeficiency virus type 1 BH10

Row | SMILES | Kd [1] [µM] | Kd [2] [µM] | Kd [3] [µM] | IC50 [4] [µM] | Kd [5] [µM] | Activity [6] | IC50 [7] [µM] | IC50 [8] [µM] | IC50 [9] [µM]
1 | C=CCNc1scnc1S(=O)(=O)c1ccccc1 | 200 | 90 | 700 | 5 | 210 |  |  |  | 
2 | COC(=O)C1=C(C)NC(=S)NC1C (stereo not given) | 700 |  |  | 570 | 380 |  |  |  | 
3 | Cc1ccc(O)cc1 |  |  |  |  |  | inactive |  |  | 
4 | O=C(c1ccncc1)c1ccc(Cl)cc1 | 700 | 60 | 600 | 96 | > 500 |  |  |  | 
5 | C/C(=N\O)c1ccc2c(c1)CCC2 | 50 | 200 | 50 | 39 | 300 |  |  |  | 
6 | Cc1cc2c(cc1[N+](=O)[O-])OCO2 | 100 | 40 | 20 | 150 | 79 |  |  |  | 
7 | O=C1c2ccccc2CCc2ncccc21 | 300 | 200 | 50 | 430 | 180 |  |  |  | 
8 | CC(C)N1CCC(CCc2c[nH]cn2)CC1 |  |  |  |  | 88 |  |  |  | 
9 | CCCCCCCCNC(=O)NCc1ccc(O)c(CO)c1 |  |  |  |  | 190 |  |  |  | 
10 | O=C1CCc2c(Br)cccc21 | 40 | 40 | 20 | 4 | 270 |  | 25 | 16 | 16
11 | Nc1cccc(-c2ccccc2)n1 |  |  |  |  |  | inactive |  |  | 
